Measurements: ChEMBL document CHEMBL5154660, “Straightforward access to novel mitochondriotropics derived from 2-arylethanol as potent and selective antiproliferative agents” (Eur J Med Chem, 2022)
Calls of active or inactive are those of the source. The calls are words filed in the database; no cut-off is given here.

Tests used:
[1] = Antiproliferative activity against human hTERT-BJ cells assessed as reduction in cell growth; assay type: toxicity, cell-based
[2] = test system: T47D; experiment: Antiproliferative activity against human T47D cells assessed as reduction in cell growth; assay type: functional
[3] = test system: WiDr; experiment: Antiproliferative activity against human WiDr cells assessed as reduction in cell growth; assay type: functional
[4] = test system: A549; experiment: Antiproliferative activity against human A549 cells assessed as reduction in cell growth; assay type: functional
[5] = test system: SW1573; experiment: Antiproliferative activity against human SW1573 cells assessed as reduction in cell growth; assay type: functional
[6] = test system: HeLa; experiment: Antiproliferative activity against human HeLa cells assessed as reduction in cell growth; assay type: functional
[7] = test system: HBL-100; experiment: Antiproliferative activity against human HBL-100 cells assessed as reduction in cell growth; assay type: functional
[8] = test system: NCI-H460; experiment: Induction of mitochondrial membrane potential loss in human NCI-H460 cells assessed as depolarization of mitochondrial membrane at 600 nM incubated for 24 hrs by JC-1 staining based flow cytometry assay; assay type: functional, cell-based
[9] = test system: NCI-H460; experiment: Induction of apoptosis in human NCI-H460 cells assessed as increase in necrotic cells at 600 nM incubated for 48 hrs by annexin-V-FITC and PI staining based flow cytometry analysis (reference value: 2 %); assay type: functional
[10] = Antiproliferative activity against human MRC5 cells assessed as reduction in cell growth measured after 48 hrs by sulforhodamine B assay; assay type: toxicity, cell-based
[11] = test system: NCI-H460; experiment: Cell cycle arrest in human NCI-H460 cells assessed as increase in accumulation at subG1 phase at 600 nM measured after 48 hrs by propidium iodide staining based flow cytometry analysis; assay type: functional
[12] = test system: NCI-H460; experiment: Cell cycle arrest in human NCI-H460 cells assessed as increase in accumulation at S phase at 600 nM measured after 48 hrs by propidium iodide staining based flow cytometry analysis; assay type: functional
[13] = test system: NCI-H460; experiment: Induction of mitochondrial membrane potential loss in human NCI-H460 cells assessed as depolarization of mitochondrial membrane at 600 nM incubated for 48 hrs by JC-1 staining based flow cytometry assay; assay type: functional, cell-based
[14] = test system: NCI-H460; experiment: Antiproliferative activity against human multi-drug resistant NCI-H460/R cells overexpressing P-glycoprotein assessed as reduction in cell growth measured after 48 hrs by sulforhodamine B assay; assay type: functional
[15] = test system: NCI-H460; experiment: Antiproliferative activity against human NCI-H460 cells assessed as reduction in cell growth measured after 48 hrs by sulforhodamine B assay; assay type: functional
[16] = test system: NCI-H460; experiment: Antiproliferative activity against human multi-drug resistant NCI-H460/R cells overexpressing P-glycoprotein assessed as cell growth inhibition in presence of tariquidar measured after 48 hrs by sulforhodamine B assay; assay type: functional; settings: dose 0.01-100 µM
[17] = test system: NCI-H460; experiment: Cell cycle arrest in human NCI-H460 cells assessed as increase in accumulation at G2/M phase at 600 nM measured after 48 hrs by propidium iodide staining based flow cytometry analysis; assay type: functional
[18] = test system: NCI-H460; experiment: Cell cycle arrest in human NCI-H460 cells assessed as decrease in accumulation at G1 phase at 600 nM measured after 48 hrs by propidium iodide staining based flow cytometry analysis; assay type: functional
[19] = Resistant index, ratio of GI50 for human multi-drug resistant NCI-H460/R cells to GI50 for human NCI-H460 cells; assay type: functional

Row | SMILES | GI50 [1] [nM] | GI50 [2] [nM] | GI50 [3] [nM] | GI50 [4] [nM] | GI50 [5] [nM] | GI50 [6] [nM] | GI50 [7] [nM] | Activity [8] | Activity [9] [%] | GI50 at 48 h [10] [nM] | Activity [11] | Activity [12] | Activity [13] | GI50 [14] [nM] | GI50 [15] [nM] | GI50 [16] [nM] | Activity [17] | Activity [18] | RatioGI50 [19]
1 | c1ccc(COc2ccc(CCOCCCCCCCCCCCC[P+](c3ccccc3)(c3ccccc3)c3ccccc3)cc2)cc1 | 3300 | 570 | 770 | 450 | 420 | 600 | 370 | – | – | – | – | – | – | – | – | – | – | – | –
2 | c1ccc(CCOCCCCCCCCCCCC[P+](c2ccccc2)(c2ccccc2)c2ccccc2)cc1 | 4400 | 270 | 260 | 170 | 250 | 330 | 290 | – | – | – | – | – | – | – | – | – | – | – | –
3 | c1ccc(COc2ccc(CCOCCCCCCCCCCCC[P+](c3ccccc3)(c3ccccc3)c3ccccc3)cc2OCc2ccccc2)cc1 | 3500 | 500 | 450 | 170 | 320 | 330 | 240 | – | – | – | – | – | – | – | – | – | – | – | –
4 | [Br-].c1ccc([P+](CCCCCCOCCc2ccc3c(c2)OCO3)(c2ccccc2)c2ccccc2)cc1 | 43000 | 270 | 240 | 870 | 350 | 350 | 580 | Active | 27 | 62700 | Active | Active | Active | 3600 | 600 | 590 | Active | Active | 6
5 | c1ccc(CCOCCCCC[P+](c2ccccc2)(c2ccccc2)c2ccccc2)cc1 | 32000 | 220 | 220 | 370 | 330 | 310 | 440 | – | – | – | – | – | – | – | – | – | – | – | –
6 | COc1ccc(CCOCCCCC[P+](c2ccccc2)(c2ccccc2)c2ccccc2)cc1 | 28000 | 310 | 330 | 400 | 370 | 390 | 520 | – | – | – | – | – | – | – | – | – | – | – | –
7 | c1ccc([P+](CCCCCOCCc2ccc3c(c2)OCO3)(c2ccccc2)c2ccccc2)cc1 | 37000 | 360 | 330 | 1400 | 640 | 540 | 680 | – | – | – | – | – | – | – | – | – | – | – | –
8 | c1ccc(COc2ccc(CCOCCCCCC[P+](c3ccccc3)(c3ccccc3)c3ccccc3)cc2OCc2ccccc2)cc1 | 3300 | 810 | 1000 | 250 | 350 | 320 | 470 | – | – | – | – | – | – | – | – | – | – | – | –
9 | c1ccc(COc2ccc(CCOCCCCC[P+](c3ccccc3)(c3ccccc3)c3ccccc3)cc2OCc2ccccc2)cc1 | 3500 | 310 | 310 | 130 | 230 | 270 | 200 | – | – | – | – | – | – | – | – | – | – | – | –
10 | COc1ccc(CCOCCCCCC[P+](c2ccccc2)(c2ccccc2)c2ccccc2)cc1 | 30000 | 200 | 230 | 260 | 220 | 270 | 370 | – | – | – | – | – | – | – | – | – | – | – | –
11 | c1ccc(COc2ccc(CCOCCCCCC[P+](c3ccccc3)(c3ccccc3)c3ccccc3)cc2)cc1 | 3100 | 200 | 240 | 120 | 120 | 180 | 250 | – | – | – | – | – | – | – | – | – | – | – | –
12 | COc1ccc(CCOCCCCCCCCCCCC[P+](c2ccccc2)(c2ccccc2)c2ccccc2)cc1 | 3600 | 290 | 320 | 180 | 250 | 320 | 340 | – | – | – | – | – | – | – | – | – | – | – | –
13 | O=c1[nH]cc(F)c(=O)[nH]1 [FLUOROURACIL] | 5500 | 43000 | 49000 | 2200 | 3300 | 16000 | 4400 | – | – | – | – | – | – | – | – | – | – | – | –
14 | COc1ccc(CCOCCCCC[P+](c2ccccc2)(c2ccccc2)c2ccccc2)cc1OC | 57000 | 2000 | 1500 | 3400 | 2100 | 2300 | 4200 | – | – | – | – | – | – | – | – | – | – | – | –
15 | c1ccc([P+](CCCCCCCCCCCCOCCc2ccc3c(c2)OCO3)(c2ccccc2)c2ccccc2)cc1 | 4600 | 180 | 190 | 59 | 170 | 220 | 210 | – | – | – | – | – | – | – | – | – | – | – | –
16 | COc1ccc(CCOCCCCCC[P+](c2ccccc2)(c2ccccc2)c2ccccc2)cc1OC | 34000 | 460 | 380 | 740 | 490 | 420 | 550 | – | – | – | – | – | – | – | – | – | – | – | –
17 | c1ccc(COc2ccc(CCOCCCCC[P+](c3ccccc3)(c3ccccc3)c3ccccc3)cc2)cc1 | 2900 | 190 | 180 | 88 | 89 | 77 | 84 | – | – | – | – | – | – | – | – | – | – | – | –
18 | [Br-].c1ccc(CCOCCCCCC[P+](c2ccccc2)(c2ccccc2)c2ccccc2)cc1 | 35000 | 140 | 140 | 130 | 160 | 170 | 260 | Active | 37 | 15300 | Active | Active | Active | 4600 | 570 | 610 | Active | Active | 8.1
19 | COc1ccc(CCOCCCCCCCCCCCC[P+](c2ccccc2)(c2ccccc2)c2ccccc2)cc1OC | 4300 | 210 | 220 | 26 | 170 | 210 | 260 | – | – | – | – | – | – | – | – | – | – | – | –
